One assay deals with tyrosinase. Further details: method as in PMID 33782442. The following applies: read-out: EC50 of activation effect on tyrosinase; cited from earlier work.
Another assay concerns mushroom tyrosinase. As to the kind of experiment: Enzyme kinetic analysis (Lineweaver-Burk) of mushroom tyrosinase. It is filed as biochemical. The following applies: sample used as substrate. As to the method:
The enzyme kinetics was determined by referring to the previously reported method with appropriate modifications. […] As described in Section 2.5, a blank group, a blank control group and a sample control group were set up. The initial rate of dopachrome formation in the reaction mixture was determined as an increase in absorbance at a wavelength of 475 nm per minute by using a microplate reader. The Michaelis constant (Km) and maximal velocity (Vmax) of tyrosinase activity were determined by Lineweaver-Burk plots using different concentrations of (+)-catechin and (−)-epicatechin as substrates.

The target of assay [1] is Tyrosinase (from mushroom, EC1.14.18.1). The assay is described as follows: Mushroom tyrosinase activity assay (L-DOPA substrate, absorbance at 475 nm). The following applies: effective concentration to promote relative enzyme activity at 150%, 37 °C, 30 min, read-out: EC50 of activation effect on tyrosinase. It is filed as biochemical. As to the method:
The tyrosinase activity was determined by referring to the previously reported method with appropriate modifications. […] The reaction was carried out at 37 °C for 30 min and the absorbance values were recorded at 475 nm with a Spectra Max M5 microplate reader (Molecular Device, Sunnyvale, CA, USA). Blank group (system containing PBS, enzyme and L-DOPA solution), blank control group (system containing PBS and L-DOPA solution), and sample control group (system containing PBS, sample solution and L-DOPA solution) were also set up. The relative enzyme activity of each sample group was calculated using the following formula: Relative enzyme activity (%) = [(B1 − B2)/(A1 − A2)] × 100 where A1 = absorbance of the blank group, A2 = absorbance of the blank control group, B1 = absorbance of the sample group and B2 = absorbance of the sample control group. The effective concentration of each sample to promote relative enzyme activity at 150% was calculated as EC50 value.

SMILES strings stand for the structures.

Consider three compounds from article PMC9777575, “Exploring the Promotive Effects and Mechanisms of Different Polyphenolic Extracts from Prinsepia utilis Royle Seed Shell on Tyrosinase” (Foods, 2022).

For `O=C(CCc1ccc(O)c(O)c1)c1c(O)cc(O)c([C@@H]2O[C@H](CO)[C@@H](O)[C@H](O)[C@H]2O)c1O` [Aspalathin], at tyrosinase, the EC50 was 265 ± 4.56 µM.
With `Oc1cc(O)c2c(c1)O[C@H](c1ccc(O)c(O)c1)[C@H](O)C2` [(−)-Epicatechin], the Km in the assay on mushroom tyrosinase (DOPA 1 mM) worked out at 11.2 µM; in the assay with mushroom tyrosinase (DOPA 1.5 mM) it was 11.7 µM; in the assay on mushroom tyrosinase (DOPA 2 mM) it was 18 µM. Further, the entries for the “Vm of tyrosinase activity” value in the assay on mushroom tyrosinase (DOPA 1 mM), in the assay on mushroom tyrosinase (DOPA 1.5 mM) and with mushroom tyrosinase (DOPA 2 mM) were 85.47, 80.00 and 71.94, respectively. In addition, the EC50 in assay [1] was 36.7 ± 0.43 µM.
With `Oc1cc(O)c2c(c1)OC(c1ccc(O)c(O)c1)C(O)C2` (single isomer, unassigned; (+)) [(+)-Catechin], the Km in the assay with mushroom tyrosinase (DOPA 1 mM) was found to be 62 µM; in the assay with mushroom tyrosinase (DOPA 1.5 mM) it was 74.3 µM; with mushroom tyrosinase (DOPA 2 mM) it was 87 µM. Besides, the “Vm of tyrosinase activity” value was 200.00 with mushroom tyrosinase (DOPA 1 mM), 175.44 in the assay with mushroom tyrosinase (DOPA 1.5 mM) and 158.73 in the assay with mushroom tyrosinase (DOPA 2 mM). For the same compound, the EC50 in assay [1] was 32.5 ± 1.7 µM.

As usually defined, the EC50 is the midpoint of the concentration-response curve. As a reminder, the Km is the concentration of substrate that gives half-maximal velocity.
